Patent US20120157499A1, “DELIVERY OF AN ACTIVE DRUG TO THE POSTERIOR PART OF THE EYE VIA SUBCONJUNCTIVAL OR PERIOCULAR DELIVERY OF A PRODRUG” (Allergan, Inc., priority 2003, published 2012)

What was measured:
[1] = Subconjunctival injection into a patient suffering from proliferative vitreal retinopathy; type: in vivo; conditions: 1 mg in poly(lactide-co-glycolide) microsphere suspension, injected subconjunctivally
Procedure: A dose of tazarotene (1 mg) contained in the poly(lactide-co-glycolide) microsphere suspension of Example containing 1 is injected subconjunctivally into a patient suffering from proliferative vitreal retinopathy.

[2] = Subconjunctival injection into a patient suffering from retinitis pigmentosa; type: in vivo; conditions: 1 mg in poly(lactide-co-glycolide) microsphere suspension, injected subconjunctivally
Procedure: A dose of tazarotene (1 mg) contained in the poly(lactide-co-glycolide) microsphere suspension of Example containing 1 is injected subconjunctivally into a patient suffering from retinitis pigmentosa.
A dose of all-trans retinyl palmitate (1 mg) contained in the poly(lactide-co-glycolide) microsphere suspension of Example containing 1 is injected subconjunctivally into a patient suffering from retinitis pigmentosa.

[3] = Ocular disposition of tazarotene and tazarotenic acid after intraocular and subconjunctival administration of tazarotene; type: in vivo; conditions: albino rabbits
Procedure: General disposition of tazarotene and tazarotenic acid resulting from intraocular and subconjunctival administration of tazarotene was assessed. Albino rabbits were dosed via intraocular injection with 1.25 μg of tazarotene. Injection was made mid-vitreous. After dosing the vitreous, retina and aqueous humor concentrations of tazarotene and tazarotenic acid were determined at 0.5, 1, 2, 4, 8, 12 and 24 hours post dosing.
Tazarotene was also dosed in the subconjunctival space. Three dosage forms were evaluated: the tazarotene aqueous suspension described in Example 2 (50 μl of the solution, 1 mg tazarotene), tazarotene olive oil solution described in Example 3 (50 μl mg of the solution, 1 mg of tazarotene), and the tazarotene poly(lactide-co-glycolide) microsphere suspension described in Example 1. After dosing, the vitreous, retina and aqueous humor concentrations of tazarotene and tazarotenic acid were determined at 2, 8, 24, 48, 96, 168 and 336 hours post dosing (see FIGS. 1-8). […] In Table 1 the mean vitreous concentration refers to average vitreous concentration observed from zero to one hundred sixty-eight hours post dosing. The mean vitreous concentration at each time point was used to calculate the overall vitreous mean concentration over the 168 hours for a given route of administration and dosage form. […]

RARβ = target: T1, RARβ (Homo sapiens, UniProt P10826); assay: RARβ receptor binding assay, competition with [3H] retinoic acid; conditions: Baculovirus-expressed receptor; Kd from IC50 by Cheng-Prussof; mean and standard deviation; read-out: receptor affinity (KD), RARβ
T1 construct: made in house
T1 sequence (P10826 1-455): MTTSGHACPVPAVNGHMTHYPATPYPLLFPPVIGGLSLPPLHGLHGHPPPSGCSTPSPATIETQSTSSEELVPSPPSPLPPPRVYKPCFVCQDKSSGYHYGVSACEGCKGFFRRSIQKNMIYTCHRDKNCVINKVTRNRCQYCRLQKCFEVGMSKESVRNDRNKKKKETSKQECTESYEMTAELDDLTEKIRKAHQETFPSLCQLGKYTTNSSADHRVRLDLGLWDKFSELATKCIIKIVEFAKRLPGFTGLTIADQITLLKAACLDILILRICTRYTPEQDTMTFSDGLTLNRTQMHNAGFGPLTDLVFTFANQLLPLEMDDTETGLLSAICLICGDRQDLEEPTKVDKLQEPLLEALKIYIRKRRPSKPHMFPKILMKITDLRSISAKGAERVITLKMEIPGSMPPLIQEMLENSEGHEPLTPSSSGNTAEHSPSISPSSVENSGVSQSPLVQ
Procedure: (§1) The binding of tazarotene and tazarotenic acid to the retinoic acid receptor (RAR) family receptors (RARα, RARβ, RARγ) was determined as follows.
(§2) All binding assays were performed in a similar fashion. All three receptor subtypes were derived from the expressed receptor type (RARα, RARβ, and RARγ) expressed in Baculovirus. Stock solutions of the compounds were prepared as 10 mM ethanol solutions and serial dilutions carried out into 1:1 DMSO; ethanol. Assay buffers consisted of the following for all six receptor assays: 8% glycerol, 120 mM KCl, 8 mM Tris, 5 mM CHAPS 4 mM DTT and 0.24 mM PMSF, pH-7.4 @ room temperature.
(§3) All receptor binding assays were performed in the same manner. […] The amount of receptor-ligand complex was determined by liquid scintillation counting of hydroxyapitite pellet.
(§4) After correcting for non-specific binding, IC50 values were determined. […] The IC50 value was determined graphically from a loglogit plot of the data. The […] were determined by application of the Cheng-Prussof equation to the IC50 values, the labeled ligand concentration and the Kd of the labeled ligand.
(§5) The results of ligand binding assay are expressed in Kd numbers. […] Binding data for tazarotenic acid is expressed as the mean and standard deviation. […]

RARα = target: T2, RARα (Homo sapiens, UniProt P10276); assay: RARα receptor binding assay, competition with [3H] retinoic acid; conditions: Baculovirus-expressed receptor; Kd from IC50 by Cheng-Prussof; mean and standard deviation; read-out: receptor affinity (KD), RARα
T2 construct: made in house
T2 sequence (P10276 1-462): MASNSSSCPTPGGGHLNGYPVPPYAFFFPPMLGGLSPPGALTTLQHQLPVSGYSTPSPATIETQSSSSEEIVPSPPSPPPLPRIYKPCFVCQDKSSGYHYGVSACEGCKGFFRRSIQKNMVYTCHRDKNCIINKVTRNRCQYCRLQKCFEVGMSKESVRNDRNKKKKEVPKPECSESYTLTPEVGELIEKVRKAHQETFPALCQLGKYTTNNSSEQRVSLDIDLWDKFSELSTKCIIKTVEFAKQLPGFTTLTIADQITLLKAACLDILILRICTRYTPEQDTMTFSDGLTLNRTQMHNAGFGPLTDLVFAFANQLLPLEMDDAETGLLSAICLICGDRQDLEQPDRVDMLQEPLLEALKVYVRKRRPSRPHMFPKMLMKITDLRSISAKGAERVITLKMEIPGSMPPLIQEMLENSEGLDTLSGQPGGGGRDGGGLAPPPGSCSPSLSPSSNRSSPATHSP
Procedure: All binding assays were performed in a similar fashion.
All receptor binding assays were performed in the same manner. […] Incubations were carried out at 4° C. until equilibrium was achieved. Non-specific binding was defined as that binding remaining in the presence of 1000 nM of the appropriate unlabeled retinoic acid isomer. […] The mixture was vortexed and incubated for 10 minutes at 4° C., centrifuged and the supernatant removed. The hydroxyapitite was washed three more times with the appropriate wash buffer. The receptor-ligand complex was adsorbed by the hydroxyapitite. The amount of receptor-ligand complex was determined by liquid scintillation counting of hydroxyapitite pellet.
as §4
The results of ligand binding assay are expressed in Kd numbers.

RARγ = target: T3, RARγ (Homo sapiens, UniProt P13631); assay: RARγ receptor binding assay, competition with [3H] retinoic acid; conditions: Baculovirus-expressed receptor; Kd from IC50 by Cheng-Prussof; mean and standard deviation; read-out: receptor affinity (KD), RARγ
T3 construct: made in house
T3 sequence (P13631 1-454): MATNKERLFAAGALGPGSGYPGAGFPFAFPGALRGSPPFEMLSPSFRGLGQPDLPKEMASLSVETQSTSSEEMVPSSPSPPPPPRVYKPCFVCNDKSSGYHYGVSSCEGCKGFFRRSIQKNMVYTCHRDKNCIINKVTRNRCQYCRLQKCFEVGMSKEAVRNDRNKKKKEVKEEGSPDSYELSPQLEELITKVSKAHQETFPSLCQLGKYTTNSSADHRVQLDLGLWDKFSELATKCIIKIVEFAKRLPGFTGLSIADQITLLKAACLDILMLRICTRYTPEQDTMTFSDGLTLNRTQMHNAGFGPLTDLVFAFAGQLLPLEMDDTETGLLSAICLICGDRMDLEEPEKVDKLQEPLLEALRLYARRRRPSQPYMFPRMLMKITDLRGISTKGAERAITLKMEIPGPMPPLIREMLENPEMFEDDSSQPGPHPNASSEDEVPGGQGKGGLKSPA
Procedure: as §1, §2, §3, §4, §5

maximal vitreous concentration of tazarotenic acid obtainable after direct intraocular implantation ([3]; intraocular tazarotene) [ng/mL]	period for which concentrations were maintained at low effective levels ([3]; subconjunctival dosing of tazarotene, ocular tissues) [h]	Kd (RARβ) [nM]	Kd (RARα) [nM]	Kd (RARγ) [nM]	SMILES	effect on traction retinal detachment, proliferative vitreal retinopathy [1]	effect on vision, retinitis pigmentosa [2]
–	–	–	–	–	CCOC(=O)c1ccc(C#Cc2ccc3c(c2)C(C)(C)CCS3)nc1 [tazarotene, ethyl 6-[(4,4-dimethylthiochroman-6-yl)ethynyl]nicotinate]	Traction retinal detachment is prevented or the rate of traction retinal detachment is reduced	Maintenance of vision or a slowing of the progression of vision loss is observed
10	336	164 ± 48	901 ± 123	353 ± 37	CC1(C)CCSc2ccc(C#Cc3ccc(C(=O)O)cn3)cc21 [tazarotenic acid, 4,4-dimethyl-6-[2′-(5″-carboxy-2″-pyridyl)-ethynyl]-thiochroman]	–	–
–	–	–	–	–	CCCCCCCCCCCCCCCC(=O)OC/C=C(C)/C=C/C=C(C)/C=C/C1=C(C)CCCC1(C)C [all-trans retinyl palmitate]	–	Maintenance of vision or a slowing of the progression of vision loss is observed
